According to ChEMBL document CHEMBL1201862, “PubChem BioAssay data set” (2004):
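Assay format: 96-well plates, 48-hour exposure. The concentration for 50% growth inhibition is given as GI50.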 Activity calls are given as the source filed them. Rule as the data show it: active = GI50 up to about 1.1 µM and inactive = higher.

Legend:
Assay in all cases: NCI tumour cell line growth inhibition, 48 h
ACHN = test system: ACHN
COLO 205 = test system: COLO 205
HCT-15 = test system: HCT-15
HL-60 = test system: HL-60
HT-29 = test system: HT-29
KM12 = test system: KM12
MDA-MB-435 = test system: MDA-MB-435
MOLT-4 = test system: MOLT-4
Malme-3M = test system: Malme-3M
NCI-H23 = test system: NCI-H23
PC-3 = test system: PC-3
SK-MEL-28 = test system: SK-MEL-28
SK-MEL-2 = test system: SK-MEL-2
SNB-19 = test system: SNB-19
SW-620 = test system: SW-620
UACC-257 = test system: UACC-257
UACC-62 = test system: UACC-62
UO-31 = test system: UO-31
HCC 2998 = test system: HCC 2998
RXF 393 = test system: RXF 393

SMILES | GI50 (ACHN) | GI50 (COLO 205) | GI50 (HCT-15) [µM] | GI50 (HL-60) | GI50 (HT-29) | GI50 (KM12) | GI50 (MDA-MB-435) | GI50 (MOLT-4) | GI50 (Malme-3M) | GI50 (NCI-H23) | GI50 (PC-3) | GI50 (SK-MEL-28) | GI50 (SK-MEL-2) | GI50 (SNB-19) | GI50 (SW-620) | GI50 (UACC-257) | GI50 (UACC-62) | GI50 (UO-31) | GI50 (HCC 2998) | GI50 (RXF 393)
CCCn1c(=O)c(N2CCN(c3ccccc3)CC2)nc2sc3ccccc3c21 | > 100 µM (inactive) | > 100 µM (inactive) | > 100 | 49.7 µM (inactive) | > 100 µM (inactive) | > 100 µM (inactive) | > 100 µM (inactive) | > 100 µM (inactive) | > 100 µM (inactive) | > 100 µM (inactive) | > 100 µM (inactive) | > 100 µM (inactive) | > 100 µM (inactive) | > 100 µM (inactive) | > 100 µM (inactive) | > 100 µM (inactive) | > 100 µM (inactive) | > 100 µM (inactive) |  | 
COc1c2cc([N+](=O)[O-])cc1CN(C(=O)C(F)(F)F)CCOCCN(C(=O)C(F)(F)F)C2 | > 100 µM (inactive) | > 100 µM (inactive) | > 100 | > 100 µM (inactive) | > 100 µM (inactive) | > 100 µM (inactive) | > 100 µM (inactive) | > 100 µM (inactive) | > 100 µM (inactive) | > 100 µM (inactive) | > 100 µM (inactive) | > 100 µM (inactive) | > 100 µM (inactive) | > 100 µM (inactive) | > 100 µM (inactive) | > 100 µM (inactive) | > 100 µM (inactive) | > 100 µM (inactive) |  | 
CC(=O)c1cc(CC2Cc3cc4c(cc3C2=O)CCC4)cc2c1CCC2 (stereo unspecified) | 92.7 µM (inactive) | 24.8 µM (inactive) | 44.1 | 8.65 µM (inactive) | 48.2 µM (inactive) | 37.2 µM (inactive) | 32.2 µM (inactive) | 18.5 µM (inactive) | 33 µM (inactive) | 15 µM (inactive) | 10.1 µM (inactive) | > 100 µM (inactive) | 71.1 µM (inactive) | 78 µM (inactive) | 49.5 µM (inactive) | 29.9 µM (inactive) | > 100 µM (inactive) | 49.5 µM (inactive) | 46 µM (inactive) | 
Nc1ccc(-c2nnc(-c3c(Cl)c(Cl)c(Cl)c(Cl)c3-c3nc4cc(C(=O)c5ccccc5)ccc4[nH]3)o2)cc1 | 41.7 µM (inactive) | 18.6 µM (inactive) | 15.7 |  | 20.5 µM (inactive) | 27.9 µM (inactive) | 4.95 µM (inactive) | 15.9 µM (inactive) | 22.8 µM (inactive) | 33 µM (inactive) | 16.6 µM (inactive) | 28.5 µM (inactive) | 24.5 µM (inactive) | 27.2 µM (inactive) | 29.5 µM (inactive) | 48.4 µM (inactive) |  | 35.7 µM (inactive) |  | 10.9 µM (inactive)
C#C[C@]1(O)CC[C@H]2[C@@H]3CCC4=C/C(=N/NC(=O)c5cccc6c(=O)c7ccccc7[nH]c56)CCC4[C@H]3CC[C@@]21C (stereo partly specified) | 65.6 µM (inactive) | 70 µM (inactive) | 73.8 | 26.4 µM (inactive) | 30.3 µM (inactive) | 25.5 µM (inactive) | 38.7 µM (inactive) | 24.1 µM (inactive) | 18 µM (inactive) | 27.1 µM (inactive) | 34.7 µM (inactive) |  | 33 µM (inactive) | 86.3 µM (inactive) | 49.8 µM (inactive) | 35.5 µM (inactive) | 30.8 µM (inactive) | 20.5 µM (inactive) | 47.9 µM (inactive) | 
CSC1=N/C(=C\c2ccco2)C(=O)N1CN1CCCCC1 | 69.5 µM (inactive) | 38.4 µM (inactive) | 38.4 |  | 51.6 µM (inactive) | > 100 µM (inactive) | > 100 µM (inactive) | 71.3 µM (inactive) | > 100 µM (inactive) | > 100 µM (inactive) | > 100 µM (inactive) | > 100 µM (inactive) | > 100 µM (inactive) | 87.3 µM (inactive) | 36.1 µM (inactive) |  | 33.1 µM (inactive) | > 100 µM (inactive) |  | 
